# Patent publication US11317626B2, “Forchlorfenuron mixtures and uses thereof” (Valent BioSciences LLC, priority 2018, dated 2022)
# Assays:
# Assay type in all cases: in vivo
# [1] = system: Concord grape vines; assay: Example 1: bud break and shoot growth of potted Concord grape vines in greenhouse; conditions: for 0-50% BB: days from bud break on the first plant to 50% of the plants with bud break, synchrony
# From the text: An aqueous 50% hydrogen cyanamide solution (Sigma-Aldrich, St. Louis, Mo. USA) was used as the source of hydrogen cyanamide (“HC”). The commercial product, Dormex® contains 50% hydrogen cyanamide (w/v) in an aqueous base.
# Erger® was used as the source of 15-0-0 fertilizer. Erger® contains 15% total nitrogen as 3.1% ammoniacal nitrogen, 5.8% nitrate nitrogen, 6.1% urea nitrogen and 3.3% calcium derived from a mixture of ammonium nitrate, calcium nitrate and urea. Erger® is always used in combination with either 20% (w/v) Ca(NO3)2 or Activ Erger®. In the following examples, 15-0-0 fertilizer was applied at a rate of 208,340 ppm calcium nitrate, 15,060 ppm nitrogen nitrate and 15,660 ppm urea or 239,060 ppm total.
# CAN-17 was used as the 17-0-0 fertilizer. CAN-17 contains 17% total nitrogen as 4.6% ammonium nitrogen and 11.6% nitrate nitrogen and 1.3% urea nitrogen and 8.8% calcium derived from ammonium nitrate and calcium nitrate. CAN-17 is available from J. R. Simplot Company (Boise, Id., USA). In the following examples, 17-0-0 fertilizer was applied at a rate of 118,200 ppm calcium nitrate and 78,900 ppm nitrogen nitrate or 197,100 ppm total. See, Table 1 below, for ratios of forchlorfenuron (“CPPU”) to fertilizer that were used in the following examples.
# To assess the ability of mixtures of the invention to promote and synchronize bud break these mixtures were applied to Concord grape vines and examined for bud break (initiation of growth) and subsequent shoot development. Specifically, dormant bare-rooted Concord grape vines were planted in pots containing Pro-Mix® BX potting soil (Pro-Mix is a registered trademark of and available from Premier Horticulture Ltd.) and pruned to five nodes on a single shoot of one-year-old wood. Nodes are regions on the shoot where leaves arise from the shoot and buds are present at the axis of the shoot:leaf interface. The bud found at the shoot:leaf interface develops into the vines new shoot growth. Aqueous solutions of forchlorfenuron, HC, 15-0-0 fertilizer, 17-0-0 fertilizer, and mixtures thereof were each applied individually or sequentially or co-applied to the first-year wood of separate Concord grape vines. Plants were grown in a heated greenhouse for 49 days and evaluated for percent of vines showing bud break, periodically between seven days after application and the conclusion of the experiment. Percent bud break is determined by the number of plants that have at least one bud broken divided by the total number of plants per treatment times 100. At 51 days after treatment (“DAT”), the plants were sacrificed and measured for total number of flower clusters, total new shoot length, longest new shoot, combined new shoot fresh weight. New shoot growth is the growth arising from the dormant buds not including the woody growth that was planted and gave rise to the new growth.
# (§1) To determine if the mixtures provided unexpected results, the observed combined efficacy (“OCE”) was divided by the expected combined efficacy (“ECE”) wherein the expected ECE is calculated by the Abbott method: ECE=A+B−(AB/100), • wherein ECE is the expected combined efficacy and in which A and B are the speed of bud break relative to control, the number of buds broken per plant relative to control, shoot length relative to control or shoot weight relative to control given by the single active ingredients. If the ratio between the OCE of the mixture and the ECE of the mixture is greater than 1, then greater than expected interactions are present in the mixture. (Gisi, Synergistic Interaction of Fungicides in Mixtures, The American Phytopathological Society, 86:11, 1273-1279,1996). Results
# [2] = system: Concord grape vines; assay: Example 2: Concord grape vines greenhouse, forchlorfenuron and 15-0-0 fertilizer (Erger) study
# From the text: (§2) To assess the ability of mixtures of the invention to promote and synchronize bud break these mixtures were applied to Concord grape vines and examined for bud break (initiation of growth) and subsequent shoot development. Specifically, dormant bare-rooted Concord grape vines were planted in pots containing Pro-Mix® BX potting soil (Pro-Mix is a registered trademark of and available from Premier Horticulture Ltd.) and pruned to five nodes on a single shoot of one-year-old wood. Nodes are regions on the shoot where leaves arise from the shoot and buds are present at the axis of the shoot:leaf interface. The bud found at the shoot:leaf interface develops into the vines new shoot growth. Aqueous solutions of forchlorfenuron, HC, 15-0-0 fertilizer, 17-0-0 fertilizer, and mixtures thereof were each applied individually or sequentially or co-applied to the first-year wood of separate Concord grape vines. […] Percent bud break is determined by the number of plants that have at least one bud broken divided by the total number of plants per treatment times 100. […] New shoot growth is the growth arising from the dormant buds not including the woody growth that was planted and gave rise to the new growth.
# as §1
# (§3) The experiment from Example 1 was repeated with varying quantities of forchlorfenuron and fertilizers in a greenhouse experiment.
# [3] = system: Malus (apple) rootstocks; assay: Example 4: bud break and shoot growth of Malus (apple) rootstocks
# Method: as §1
# (§4) To assess the ability of mixtures of the invention to promote and synchronize bud break, these mixtures were applied to field-grown Malus (apple) rootstocks and examined for bud break (initiation of growth) and subsequent shoot development. Forchlorfenuron, Dormex (50% HC), 15-0-0 (Erger®) and 17-0-0 fertilizers (CAN17), and mixtures thereof were each applied individually or sequentially (co-applied) to the shoots of potted Malus rootstocks that were pruned to a height of 25 centimeters. Plants were evaluated for bud break at 28 days after treatment.
# [4] = system: Flame seedless grape vines; assay: Example 3: bud break on spurs of field-grown Flame seedless grape vines; conditions: 41 days post application
# Method: as §1
# as §4, with “Flame seedless grape vines in Thermal, Calif.,” for “Malus (apple) rootstocks”, “separate spurs” for “shoots”, “Flame seedless grape vines.” for “potted Malus rootstocks that were pruned to a height of 25 centimeters.”, “41” for “28”, “treatment. Results of these evaluations can be seen below in Tables 11 and 12.” for “treatment.”
# [5] = system: Concord grape vines; assay: Example 2: Concord grape vines greenhouse, forchlorfenuron and 17-0-0 fertilizer (CAN17) study
# From the text: as §2, §1, §3
# [6] = system: Prunus (stone fruit) plants; assay: Example 5: bud break and shoot growth of Prunus (stone fruit) plants in greenhouse
# Method: as §1
# as §4, with “Prunus (stone fruit) plants in the greenhouse” for “field-grown Malus (apple) rootstocks”, “Prunus plants.” for “potted Malus rootstocks that were pruned to a height of 25 centimeters.”
# [7] = combined shoot fresh weight, 52 days after planting
# [8] = days after treatment to 50% bud break
smiles,measurement,setting,value
"N#CN [1% HC (v/v), hydrogen cyanamide]",Percentage of Concord Grape Vines with Dormancy Relieved,"[1]; 31 days after treatment, plants with at least one bud showing a green shoot emerging",100%
same,Percentage of Concord Grape Vines with Dormancy Relieved,[1]; 34 days after treatment,100%
same,Percentage of Concord Grape Vines with Dormancy Relieved,[1]; 36 days after treatment,100%
same,Percentage of Concord Grape Vines with Dormancy Relieved,[1]; 38 days after treatment,100%
same,Percentage of Concord Grape Vines with Dormancy Relieved,[1]; 43 days after treatment,100%
same,Percentage of Concord Grape Vines with Dormancy Relieved,[1]; 45 days after treatment,100%
same,Percentage of Concord Grape Vines with Dormancy Relieved,[1]; 51 days after treatment,100%
same,Broken Buds/Plant,[1]; 51 days post-treatment,2.50
same,FW/Broken Bud,[1]; 51 days post-treatment,11.18 grams
same,FW/Plant,[1]; combined shoot fresh weight at 51 DAT,27.95 grams
same,50% BB,[1]; days from application to 50% of the plants showing at least one bud broken,15 days
same,0-50% BB,[1],4 days
same,0-50% BB,[1]; listed as 1% HC,four
same,Fresh Weight at Harvest,[2]; [7],42.21 grams
same,50% BB,[2]; [8],17 days
same,Average Number of Broken Nodes Per Plant at Harvest,[2]; harvest 52 days after planting,2.13
same,Fresh Weight at Harvest,"[3]; combined new shoot growth, harvest at 28 days",7.99 grams
same,50% BB,[3]; [8],12 days
same,Average Number of Broken Buds Per Malus Plant at Harvest,[3]; harvest at 28 days,8.13
same,Fresh Weight per Bud at Harvest,[3]; harvest at 28 days,0.98 grams
same,Average Number of Broken Nodes Per Centimeter of Shoot at Harvest,"[3]; harvest at 28 days, rootstocks pruned to 25 centimeters",0.325
same,Broken Buds per Spur (OCE),[4],1.48
same,Percentage of Spurs With At Least One Bud Broken (OCE),[4],72%
same,Fresh Weight at Harvest,[5]; [7],37.01 grams
same,50% BB,[5]; [8],17 days
same,Average Number of Broken Nodes Per Plant at Harvest,[5]; harvest 52 days after planting,2.38
same,"Fresh Weight at Harvest, FW","[6]; combined new shoot fresh weight, harvest at 28 days",4.76 grams
same,50% BB,[6]; [8],7 days
